Assay results reported in US20240041042A1, “1-(PYRIDYL)-5-AZINYLPYRAZOLE DERIVATIVES, AND THEIR USE FOR CONTROL OF UNDESIRED PLANT GROWTH” (Bayer Aktiengesellschaft, priority 2020, published 2024).

Experiments:
Format in all cases: in vivo
Setaria viridis (SETVI) [1] = assay: Pre-emergence herbicidal action against SETVI
Summary of the method: (§1)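 Pre-emergence soil-surface spray, WP/EC formulation, 0.5% additive, 600 l/ha water, rates of 320 g/ha or lower. Greenhouse, ~3 wk. Visual score, % of untreated control (100% = plants dead, 0% = like control).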

Avena fatua (AVEFA) [2] = assay: Pre-emergence herbicidal action against AVEFA; conditions: 320 g/ha, visual scoring after about 3 weeks vs untreated controls
Summary of the method: as §1

[3] = test system: Digitaria sanguinalis (DIGSA); assay: Post-emergence herbicidal action against DIGSA; conditions: 320 g/ha, visual rating about 3 weeks after treatment
Summary of the method: (§2)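 Doses of 320 g/ha or lower, suffixes a, b and c marking different dosages, were applied post-emergence at the one-leaf stage in 600 l/ha water with 0.5% additive. Damage was assessed visually after about 3 weeks in the greenhouse.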

[4] = test system: Polygonum convolvulus (POLCO); assay: Post-emergence herbicidal action against POLCO
Summary of the method: as §2

[5] = test system: Alopecurus myosuroides (ALOMY); assay: Post-emergence herbicidal action against ALOMY; conditions: visual rating about 3 weeks after treatment vs untreated controls (100% = plants have died, 0% = like control plants)
Summary of the method: as §2

[6] = test system: Echinochloa crus-galli (ECHCG); assay: Post-emergence herbicidal action against ECHCG; conditions: dosage 320 g/ha
Summary of the method: as §2

Lolium rigidum (LOLRI) [7] = assay: Pre-emergence herbicidal action against LOLRI
Summary of the method: as §1

[8] = test system: Polygonum convolvulus (POLCO); assay: Pre-emergence herbicidal action against POLCO
Summary of the method: as §1

[9] = test system: Echinochloa crus-galli (ECHCG); assay: Pre-emergence herbicidal action against ECHCG; conditions: dosage 320 g/ha
Summary of the method: as §1

[10] = test system: Matricaria inodora (MATIN); assay: Pre-emergence herbicidal action against MATIN; conditions: dosage 320 g/ha
Summary of the method: as §1

[11] = test system: Amaranthus retroflexus (AMARE); assay: Pre-emergence herbicidal action against AMARE; conditions: visual scoring after about 3 weeks vs untreated controls
Summary of the method: as §1

[12] = test system: Verconica persica (VERPE); assay: Pre-emergence herbicidal action against VERPE
Summary of the method: as §1

Avena fatua (AVEFA) [13] = assay: Post-emergence herbicidal action against AVEFA; conditions: visual rating about 3 weeks after treatment
Summary of the method: as §2

[14] = test system: Digitaria sanguinalis (DIGSA); assay: Pre-emergence herbicidal action against DIGSA
Summary of the method: as §1

[15] = test system: Alopecurus myosuroides (ALOMY); assay: Pre-emergence herbicidal action against ALOMY; conditions: scored visually after about 3 weeks, 100% = plants have died
Summary of the method: as §1

[16] = test system: Abutilon theophrasti (ABUTH); assay: Pre-emergence herbicidal action against ABUTH; conditions: Dosage column 320 g/ha (title prints 3200 g/ha); scored visually after about 3 weeks; 100% = plants have died
Summary of the method: as §1

[17] = test system: Pharbitis purpurea (PHBPU); assay: Post-emergence herbicidal action against PHBPU; conditions: dosage 320 g/ha
Summary of the method: as §2

Lolium rigidum (LOLRI) [18] = assay: Post-emergence herbicidal action against LOLRI; conditions: dosage 320 g/ha
Summary of the method: as §2

[19] = test system: Verconica persica (VERPE); assay: Post-emergence herbicidal action against VERPE
Summary of the method: as §2

[20] = test system: Abutilon theophrasti (ABUTH); assay: Post-emergence herbicidal action against ABUTH; conditions: visual rating about 3 weeks after treatment vs untreated controls (100% = plants have died, 0% = like control plants)
Summary of the method: as §2

Viola tricolor (VIOTR) [21] = assay: Pre-emergence herbicidal action against VIOTR
Summary of the method: as §1

[22] = test system: Matricaria inodora (MATIN); assay: Post-emergence herbicidal action against MATIN; conditions: dosage 320 g/ha
Summary of the method: as §2

Viola tricolor (VIOTR) [23] = assay: Post-emergence herbicidal action against VIOTR
Summary of the method: as §2

Setaria viridis (SETVI) [24] = assay: Post-emergence herbicidal action against SETVI
Summary of the method: as §2

[25] = test system: Amaranthus retroflexus (AMARE); assay: Post-emergence herbicidal action against AMARE
Summary of the method: as §2

**Q.** `COC(=O)[C@@H](C)Oc1nn(-c2ncccc2F)c(-c2ccc(F)nc2)c1Br` [Example I-05, Methyl (2R)-2-{[4-bromo-1-(3-fluoropyridin-2-yl)-5-(6-fluoropyridin-3-yl)-1H-pyrazol-3-yl]oxy}propanoate] was tested. Which “Pre-emergence action against SETVI in %” value (Setaria viridis (SETVI) [1]; dosage 80 g/ha) did it give?
**A.** The value was 100%.

**Q.** What about the “Pre-emergence action against SETVI in %” value (Setaria viridis (SETVI) [1]; dosage 320 g/ha) of the same compound?
**A.** Its value is 100%.

**Q.** And the “Pre-emergence action against AVEFA in %” value (Avena fatua (AVEFA) [2])?
**A.** Its value is 90%.

**Q.** And the “Post-emergence action against DIGSA in %” value [3]?
**A.** The value was 90%.

**Q.** What about the “Post-emergence action against POLCO in %” value ([4]; dosage 80 g/ha) of the same compound?
**A.** Its value is 90%.

**Q.** What about the “Post-emergence action against POLCO in %” value ([4]; dosage 320 g/ha) of the same compound?
**A.** Its value is 90%.

**Q.** And the “Post-emergence action against ALOMY in %” value ([5]; 80 g/ha)?
**A.** The value was 90%.

**Q.** And the “Post-emergence action against ALOMY in %” value ([5]; 320 g/ha)?
**A.** Its value is 100%.

**Q.** What about the “Post-emergence action against ECHCG in %” value [6] of the same compound?
**A.** The value was 90%.

**Q.** What about the “Pre-emergence action against LOLRI in %” value (Lolium rigidum (LOLRI) [7]; dosage 80 g/ha) of the same compound?
**A.** Its value is 80%.

**Q.** What about the “Pre-emergence action against LOLRI in %” value (Lolium rigidum (LOLRI) [7]; dosage 320 g/ha) of the same compound?
**A.** The value was 100%.

**Q.** What about the “Pre-emergence action against POLCO in %” value ([8]; dosage 80 g/ha) of the same compound?
**A.** Its value is 90%.

**Q.** And the “Pre-emergence action against POLCO in %” value ([8]; dosage 320 g/ha)?
**A.** Its value is 90%.

**Q.** And the “Pre-emergence action against ECHCG in %” value [9]?
**A.** Its value is 100%.

**Q.** And the “Pre-emergence action against MATIN in %” value [10]?
**A.** Its value is 90%.

**Q.** And the “Pre-emergence action against AMARE in %” value ([11]; 80 g/ha)?
**A.** The value was 90%.

**Q.** What about the “Pre-emergence action against AMARE in %” value ([11]; 320 g/ha) of the same compound?
**A.** The value was 100%.

**Q.** And the “Pre-emergence action against VERPE in %” value ([12]; dosage 80 g/ha)?
**A.** Its value is 100%.

**Q.** What about the “Pre-emergence action against VERPE in %” value ([12]; dosage 320 g/ha) of the same compound?
**A.** Its value is 100%.

**Q.** And the “Post-emergence action against AVEFA in %” value (Avena fatua (AVEFA) [13]; 80 g/ha)?
**A.** The value was 90%.

**Q.** And the “Post-emergence action against AVEFA in %” value (Avena fatua (AVEFA) [13]; 320 g/ha)?
**A.** Its value is 90%.

**Q.** And the “Pre-emergence action against DIGSA in %” value ([14]; 80 g/ha, visual scoring after about 3 weeks vs untreated controls)?
**A.** The value was 100%.

**Q.** And the “Pre-emergence action against DIGSA in %” value ([14]; dosage 320 g/ha)?
**A.** Its value is 100%.

**Q.** And the “Pre-emergence action against ALOMY” value ([15]; 80 g/ha)?
**A.** Its value is 90%.

**Q.** What about the “Pre-emergence action against ALOMY” value ([15]; 320 g/ha) of the same compound?
**A.** The value was 100%.

**Q.** And the “Pre-emergence action against ABUTH” value [16]?
**A.** The value was 80%.

**Q.** And the “Post-emergence action against PHBPU in %” value [17]?
**A.** Its value is 90%.

**Q.** And the “Post-emergence action against LOLRI in %” value (Lolium rigidum (LOLRI) [18])?
**A.** The value was 90%.

**Q.** And the “Post-emergence action against VERPE in %” value ([19]; 320 g/ha, VERPE)?
**A.** Its value is 90%.

**Q.** What about the “Post-emergence action against VERPE in %” value ([19]; dosage 80 g/ha) of the same compound?
**A.** The value was 90%.

**Q.** And the “Post-emergence action against ABUTH in %” value ([20]; 80 g/ha)?
**A.** The value was 80%.

**Q.** And the “Post-emergence action against ABUTH in %” value ([20]; 320 g/ha)?
**A.** Its value is 80%.

**Q.** And the “Pre-emergence action against VIOTR in %” value (Viola tricolor (VIOTR) [21]; 320 g/ha, Viola tricolor)?
**A.** The value was 100%.

**Q.** What about the “Pre-emergence action against VIOTR in %” value (Viola tricolor (VIOTR) [21]; dosage 80 g/ha) of the same compound?
**A.** The value was 90%.

**Q.** And the “Post-emergence action against MATIN in %” value [22]?
**A.** Its value is 100%.

**Q.** What about the “Post-emergence action against VIOTR in %” value (Viola tricolor (VIOTR) [23]; 80 g/ha) of the same compound?
**A.** The value was 100%.

**Q.** And the “Post-emergence action against VIOTR in %” value (Viola tricolor (VIOTR) [23]; 320 g/ha)?
**A.** The value was 100%.

**Q.** And the “Post-emergence action against SETVI in %” value (Setaria viridis (SETVI) [24]; dosage 80 g/ha)?
**A.** The value was 80%.

**Q.** And the “Post-emergence action against SETVI in %” value (Setaria viridis (SETVI) [24]; dosage 320 g/ha)?
**A.** The value was 90%.

**Q.** And the “Post-emergence action against AMARE in %” value ([25]; 80 g/ha, visual rating about 3 weeks after treatment vs untreated controls (100% = plants have died, 0% = like control plants))?
**A.** The value was 90%.

**Q.** And the “Post-emergence action against AMARE in %” value ([25]; 320 g/ha, visual rating about 3 weeks after treatment)?
**A.** The value was 90%.
